Patent publication US12544451B2, “Intracellular delivery compositions” (BIOND BIOLOGICS LTD., priority 2021, dated 2026)

What was measured:
[1] = tested on: A375 cells; experiment: Internalization of PEI-modified IgG (4.5 PEIs) in the presence of endocytosis inhibitors; type: cell-based; details: overnight, PEI-modified mouse IgG (4.5 PEIs)
Description: Cationized moieties are thought to internalize using a natural endocytosis mechanism. The two relevant endocytosis mechanisms are caveolin- and clathrin-mediated endocytosis. The exact mechanism of internalization was elucidated by performing the internalization of PEI-modified IgG in the presence of known specific endocytosis inhibitors. A375 cells were incubated overnight with PEI-modified mouse IgG (4.5 PEIs) in the presence of Clathrin inhibitors (Amantadine or Chlorpromazine) or a Caveolin inhibitor (Genistein). […] This corroborates that Caveolin-mediated endocytosis is exploited by the PEI-modified payloads for internalization as inhibition of Clathrin-mediated endocytosis caused a compensatory increase in Caveolin-mediated endocytosis in the cells.

[2] = tested on: A375 cells; experiment: Intracellular BRAF inhibition: Annexin V apoptosis assay in A375 cells (IncuCyte, CellTiter-Glo normalisation); type: cell-based; details: 1 μM or 3 μM agent, BRAF inhibitor at 10 μM
Description: FIGS. 42A-42D. A375 cells were seeded in 96 plate wells for 24 h to allow cells adherence (1500 cells/well). To each well a sample of the tested agent was added at the desired concentration (42A-42B) 1 μM; (42C-42D) […], except BRAF inhibitor, PF-04880594 that was added at 10 μM. (42A, 42C) Red area obtained from the Annexin V red reagent, a commonly used fluorescent dye identifying apoptotic cells, monitored in IncuCyte®. (42B, 42D) Red area normalized to the value obtained by CellTiter-Glo corresponding to intact cells.
Random modification was achieved by reaction of 1C5-Hel20-LC with PEI1800 in the presence of EDC, to give 1C5-Hel20-LC-r-C(O)—NH-PEI1800 (S8). The different constructs of payload conjugated directly to PEI were evaluated for their ability to penetrate A375 cells and induce apoptosis following BRAF inhibition. […]
1C5-Hel20-LC-HSA-PEI (S5C)×n conjugates were prepared by reduction of 1C5-Hel20-LC and activation with 2,2′-Dithiobis(5-nitropyridine) followed by conjugation to HSA-PEI×n. Intracellular BRAF inhibition by the different constructs was evaluated by a functional assay in A375 cells. The different conjugates were incubated with A375 cells in the presence of Annexin V red reagent, for 6 days, while monitoring fluorescence in IncuCyte® to identify apoptotic cells (FIG. 42A, C). […]

[3] = Zeta potential measurement (Zeta Sizer Ultra); type: physicochemical; details: alternative carriers and HSA before and after PEI modification; STD in separate column
Description: Zeta potential measurements were preformed using Zeta Sizer Ultra (Malvern Instruments). Samples' buffers were exchanged to 1 mM NaCl at 1 mg/mL protein concentration. 20 μL from each sample was loaded in zeta cells (DTS1070), five repeats for each sample were measured and the mean zeta potential in mV was obtained for each repeat. The average for the five measurements is reported with the standard deviation. The measurements were performed under the following conditions: temperature 25° C.; run numbers for each repeat 10-40; equilibration time: 60 seconds, without pause after sub runs; 60 seconds pause between repeats; voltage was selected automatic and monomodal analysis method was used in the data processing.
Zeta potential measurements were preformed using Zeta Sizer Ultra (Malvern Instruments), samples buffer was exchanged to 1 mM NaCl at 1 mg/mL protein concentration. 20 μL from each sample were loaded in zeta cells (DTS1070), five repeats for each sample were measured and the mean zeta potential in mV was obtained.

Compound | effect on internalization of PEI-modified IgG [1] | other results
CN(C)CCCN1c2ccccc2Sc2ccc(Cl)cc21 [Chlorpromazine] | resulted in increased internalization | –
O=c1c(-c2ccc(O)cc2)coc2cc(O)cc(O)c12 [Genistein] | inhibited the internalization of PEI-modified IgG | –
N#CCCNc1nccc(-c2cn(CC(F)F)nc2-c2cnc3[nH]ccc3c2)n1 [PF-04880594, reference compound] | – | apoptosis (Annexin V red signal) [2]: highly potent cell killer
Fibrinogen | – | Zeta potential (mV) [3]: −1.4 mV
